Experimental data: patent US5919901A (priority 1996, dated 1999)

Legend:
Adult male Wistar rats = assay: In vivo feeding after ICV injection, rodent chow consumed in 2 hours; parameters: species or system rat; conditions: for Feeding (g/2 h): rats, ICV, 1-6 nmoles peptide, chow consumed in 2 hours, saline <3 g/2 hours
Protocol: Adult male Wistar rats were surgically implanted with a chronic intracerebral ventricular (ICV) cannula (Plastic Products, Roanoke, Va.) using a stereotaxic instrument. Several days after the surgery, 1-6 nmoles of each peptide (or saline) was injected into the lateral ventricle of 4-12 rats in a volume of 5-10 μl The quantity of rodent chow consumed in a 2 hour period was measured.

Rat Y4/PP1 (clone) = Rat Y4/PP1 (clone) (Rattus norvegicus, UniProt Q63447); assay: Rat Y4/PP1 [125I]PP binding assay
Chain of Rat Y4/PP1 (clone) (Q63447 whole entry): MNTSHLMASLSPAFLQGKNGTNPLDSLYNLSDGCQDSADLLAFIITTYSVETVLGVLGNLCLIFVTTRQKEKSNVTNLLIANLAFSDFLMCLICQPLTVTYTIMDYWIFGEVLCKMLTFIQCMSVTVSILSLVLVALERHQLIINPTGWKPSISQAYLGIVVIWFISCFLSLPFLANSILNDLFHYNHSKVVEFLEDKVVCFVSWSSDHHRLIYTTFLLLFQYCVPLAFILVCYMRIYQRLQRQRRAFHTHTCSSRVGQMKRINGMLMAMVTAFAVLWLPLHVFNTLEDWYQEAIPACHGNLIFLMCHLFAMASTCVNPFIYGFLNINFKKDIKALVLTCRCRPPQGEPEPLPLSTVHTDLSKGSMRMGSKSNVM

CC[C@H](C)[C@H](NC(=O)[C@H](Cc1ccc(O)cc1)NC(=O)[C@H](CCCNC(=N)N)NC(=O)[C@H](CCCNC(=N)N)NC(=O)[C@H](CC(C)C)NC(=O)[C@H](CC(=O)O)NC(=O)[C@H](C)NC(=O)[C@H](C)NC(=O)[C@H](Cc1ccc(O)cc1)NC(=O)[C@H](CCC(N)=O)NC(=O)[C@H](C)NC(=O)[C@H](CCSC)NC(=O)[C@H](CCC(N)=O)NC(=O)[C@H](CCC(=O)O)NC(=O)[C@@H]1CCCN1C(=O)[C@@H](NC(=O)[C@H](C)NC(=O)[C@H](CC(N)=O)NC(=O)[C@H](CC(=O)O)NC(=O)CNC(=O)[C@@H]1CCCN1C(=O)[C@H](Cc1ccc(O)cc1)NC(=O)[C@@H](NC(=O)[C@@H]1CCCN1C(=O)[C@H](CCC(=O)O)NC(=O)[C@H](CC(C)C)NC(=O)[C@@H]1CCCN1C(=O)[C@H](C)N)C(C)C)[C@@H](C)O)C(=O)N[C@@H](CC(N)=O)C(=O)N[C@@H](CCSC)C(=O)N[C@@H](CC(C)C)C(=O)N[C@H](C(=O)N[C@@H](CCCNC(=N)N)C(=O)N1CCC[C@H]1C(=O)N[C@@H](CCCNC(=N)N)C(=O)N[C@@H](Cc1ccc(O)cc1)C(N)=O)[C@@H](C)O [hPP, pancreatic polypeptide]
Feeding (g/2 h) (Adult male Wistar rats): > 5 g/2 h

CC[C@H](C)[C@H](NC(=O)[C@H](Cc1ccc(O)cc1)NC(=O)[C@H](Cc1c[nH]cn1)NC(=O)[C@H](CCCNC(=N)N)NC(=O)[C@H](CC(C)C)NC(=O)[C@H](C)NC(=O)[C@@H](N)CO)C(=O)N[C@@H](CC(N)=O)C(=O)N[C@@H](CC(C)C)C(=O)N[C@H](C(=O)N[C@H](C(=O)N[C@@H](CCCNC(=N)N)C(=O)N[C@@H](CCC(N)=O)C(=O)N[C@@H](CCCNC(=N)N)C(=O)N[C@@H](Cc1ccc(O)cc1)C(N)=O)[C@@H](C)O)[C@@H](C)CC [r/h(22-36)NPY, (22-36)NPY]
Feeding (g/2 h) (Adult male Wistar rats): < 3 g/2 h

CC[C@H](C)[C@H](NC(=O)[C@H](Cc1ccc(O)cc1)NC(=O)[C@@H](N)Cc1c[nH]cn1)C(=O)N[C@@H](CC(N)=O)C(=O)N[C@@H](CC(C)C)C(=O)N[C@H](C(=O)N[C@H](C(=O)N[C@@H](CCCNC(=N)N)C(=O)N[C@@H](CCC(N)=O)C(=O)N[C@@H](CCCNC(=N)N)C(=O)N[C@@H](Cc1ccc(O)cc1)C(N)=O)[C@@H](C)O)[C@@H](C)CC [r/h(26-36)NPY, (26-36)NPY]
Feeding (g/2 h) (Adult male Wistar rats): < 3 g/2 h

CC[C@H](C)[C@H](NC(=O)[C@H](Cc1ccc(O)cc1)NC(=O)[C@H](CCCNC(=N)N)NC(=O)[C@H](CCCNC(=N)N)NC(=O)[C@H](CC(C)C)NC(=O)[C@H](CC(=O)O)NC(=O)[C@H](C)NC(=O)[C@H](C)NC(=O)[C@H](Cc1ccc(O)cc1)NC(=O)[C@H](CCC(N)=O)NC(=O)[C@H](C)NC(=O)[C@H](CCSC)NC(=O)[C@H](CCC(N)=O)NC(=O)[C@H](CCC(=O)O)NC(=O)[C@@H]1CCCN1C(=O)[C@@H](NC(=O)[C@H](C)NC(=O)[C@H](CC(N)=O)NC(=O)[C@H](CC(=O)O)NC(=O)CNC(=O)[C@@H]1CCCN1C(=O)[C@H](Cc1ccc(O)cc1)NC(=O)[C@@H](NC(=O)[C@@H]1CCCN1C(=O)[C@H](CCC(=O)O)NC(=O)[C@H](CC(C)C)NC(=O)[C@@H]1CCCN1C(=O)[C@H](C)N)C(C)C)[C@@H](C)O)C(=O)N[C@@H](CC(N)=O)C(=O)N[C@@H](CCSC)C(=O)N[C@@H](CC(C)C)C(=O)N[C@H](C(=O)N[C@@H](CCCNC(=N)N)C(=O)N1CCC[C@H]1C(=O)N[C@@H](CCCNC(=N)N)C(=O)N[C@@H](Cc1ccc(O)cc1)C(N)=O)[C@@H](C)O [rPP, pancreatic polypeptide]
affinity for the rat Y4/PP1 receptor (Rat Y4/PP1 (clone)): very high affinity
feeding response in rats (Adult male Wistar rats; administered ICV to rats): does not induce much feeding
Feeding (g/2 h) (Adult male Wistar rats): < 3 g/2 h
